Assays:
[1] = biological target: Proto-oncogene tyrosine-protein kinase receptor Ret (Homo sapiens, UniProt P07949); assay: Inhibition of RET (unknown origin)
U-266 = assay: Antiproliferative activity against human U266B1 cells assessed as inhibition of cell proliferation; type: functional, cell-based
[2] = biological target: Signal transducer and activator of transcription 3 (Homo sapiens, UniProt P40763); assay: Inhibition of IL6-stimulated STAT3 signalling in human CD4+ T cells; type: cell-based, T cell
[3] = biological target: T1, Tyrosine-protein kinase JAK2 (Homo sapiens, UniProt O60674); assay: Inhibition of JAK2 (unknown origin) by Lanthascreen kinase assay
T1 sequence (O60674 whole entry): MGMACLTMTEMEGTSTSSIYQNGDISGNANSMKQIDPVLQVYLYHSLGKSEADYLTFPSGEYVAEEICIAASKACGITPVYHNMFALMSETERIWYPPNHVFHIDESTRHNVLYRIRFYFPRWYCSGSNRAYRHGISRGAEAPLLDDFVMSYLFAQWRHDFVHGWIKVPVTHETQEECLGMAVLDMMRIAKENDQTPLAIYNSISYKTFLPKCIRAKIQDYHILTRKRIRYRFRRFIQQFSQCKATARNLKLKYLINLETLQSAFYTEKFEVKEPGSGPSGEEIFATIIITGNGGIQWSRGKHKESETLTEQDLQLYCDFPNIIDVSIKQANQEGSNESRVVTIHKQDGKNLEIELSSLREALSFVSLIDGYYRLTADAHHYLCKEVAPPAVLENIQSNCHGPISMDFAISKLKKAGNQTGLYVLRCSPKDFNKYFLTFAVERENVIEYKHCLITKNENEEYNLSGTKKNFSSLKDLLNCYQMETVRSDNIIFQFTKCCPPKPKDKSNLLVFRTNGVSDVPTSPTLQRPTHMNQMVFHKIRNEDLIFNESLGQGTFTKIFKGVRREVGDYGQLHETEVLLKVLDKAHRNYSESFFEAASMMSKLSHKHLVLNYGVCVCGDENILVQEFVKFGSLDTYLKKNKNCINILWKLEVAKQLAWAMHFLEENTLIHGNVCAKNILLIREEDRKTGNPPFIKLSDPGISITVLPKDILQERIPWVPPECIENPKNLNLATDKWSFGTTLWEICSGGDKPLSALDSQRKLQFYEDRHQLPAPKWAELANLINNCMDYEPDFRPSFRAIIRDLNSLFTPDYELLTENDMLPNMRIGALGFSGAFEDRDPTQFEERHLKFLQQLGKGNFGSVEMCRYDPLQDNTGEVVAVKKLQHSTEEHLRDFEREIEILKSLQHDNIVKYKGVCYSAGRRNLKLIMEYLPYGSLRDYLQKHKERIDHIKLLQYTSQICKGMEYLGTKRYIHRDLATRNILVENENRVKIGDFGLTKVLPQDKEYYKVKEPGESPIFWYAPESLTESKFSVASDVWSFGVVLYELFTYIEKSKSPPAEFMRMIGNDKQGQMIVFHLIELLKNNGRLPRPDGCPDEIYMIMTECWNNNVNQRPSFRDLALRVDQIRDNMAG

[4] = biological target: T2, Tyrosine-protein kinase JAK3 (Homo sapiens, UniProt P52333); assay: Inhibition of JAK3 (unknown origin) by Lanthascreen kinase assay
T2 sequence (P52333 whole entry): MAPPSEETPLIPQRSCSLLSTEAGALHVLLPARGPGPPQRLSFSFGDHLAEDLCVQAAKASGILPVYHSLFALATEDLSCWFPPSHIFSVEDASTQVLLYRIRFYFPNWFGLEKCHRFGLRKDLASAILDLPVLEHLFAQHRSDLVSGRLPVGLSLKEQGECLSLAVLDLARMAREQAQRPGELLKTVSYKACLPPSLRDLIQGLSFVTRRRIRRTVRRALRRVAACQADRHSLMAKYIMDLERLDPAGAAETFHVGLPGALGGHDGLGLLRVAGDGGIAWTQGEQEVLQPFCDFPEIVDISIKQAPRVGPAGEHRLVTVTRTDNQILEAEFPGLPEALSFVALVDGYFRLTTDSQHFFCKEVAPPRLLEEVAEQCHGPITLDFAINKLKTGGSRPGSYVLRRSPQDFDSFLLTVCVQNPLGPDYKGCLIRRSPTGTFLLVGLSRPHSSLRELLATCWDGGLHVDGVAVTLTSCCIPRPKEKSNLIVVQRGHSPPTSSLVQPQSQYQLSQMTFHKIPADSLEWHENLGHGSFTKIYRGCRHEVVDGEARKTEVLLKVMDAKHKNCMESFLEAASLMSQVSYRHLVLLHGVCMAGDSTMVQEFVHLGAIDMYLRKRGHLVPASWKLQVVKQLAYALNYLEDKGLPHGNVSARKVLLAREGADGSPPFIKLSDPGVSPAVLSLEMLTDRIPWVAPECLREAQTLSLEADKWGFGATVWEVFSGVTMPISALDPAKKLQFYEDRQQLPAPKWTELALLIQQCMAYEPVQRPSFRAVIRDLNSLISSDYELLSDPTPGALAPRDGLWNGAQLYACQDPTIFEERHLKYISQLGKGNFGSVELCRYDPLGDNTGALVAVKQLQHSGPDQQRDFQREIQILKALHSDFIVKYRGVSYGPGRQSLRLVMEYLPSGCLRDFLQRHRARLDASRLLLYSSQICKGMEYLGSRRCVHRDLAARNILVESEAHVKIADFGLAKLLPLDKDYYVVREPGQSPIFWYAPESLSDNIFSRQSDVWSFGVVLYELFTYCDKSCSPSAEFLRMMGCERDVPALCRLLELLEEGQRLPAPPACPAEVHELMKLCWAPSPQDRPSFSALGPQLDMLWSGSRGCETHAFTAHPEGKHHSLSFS

HCT-116 [5] = assay: Antitumor activity against human HCT-116 cells xenografted in Balb/c mouse assessed as tumor growth inhibition at 15 mg/kg relative to control; type: functional; details: read-out: TGI
HCT-116 [6] = assay: Antitumor activity against human HCT-116 cells xenografted in Balb/c mouse assessed as tumor growth inhibition at 20 mg/kg relative to control; type: functional; details: read-out: TGI
[7] = biological target: T3, Tyrosine-protein kinase JAK1 (Homo sapiens, UniProt P23458); assay: Competitive inhibition of JAK1 (unknown origin) in the presence of ATP
T3 sequence (P23458 whole entry): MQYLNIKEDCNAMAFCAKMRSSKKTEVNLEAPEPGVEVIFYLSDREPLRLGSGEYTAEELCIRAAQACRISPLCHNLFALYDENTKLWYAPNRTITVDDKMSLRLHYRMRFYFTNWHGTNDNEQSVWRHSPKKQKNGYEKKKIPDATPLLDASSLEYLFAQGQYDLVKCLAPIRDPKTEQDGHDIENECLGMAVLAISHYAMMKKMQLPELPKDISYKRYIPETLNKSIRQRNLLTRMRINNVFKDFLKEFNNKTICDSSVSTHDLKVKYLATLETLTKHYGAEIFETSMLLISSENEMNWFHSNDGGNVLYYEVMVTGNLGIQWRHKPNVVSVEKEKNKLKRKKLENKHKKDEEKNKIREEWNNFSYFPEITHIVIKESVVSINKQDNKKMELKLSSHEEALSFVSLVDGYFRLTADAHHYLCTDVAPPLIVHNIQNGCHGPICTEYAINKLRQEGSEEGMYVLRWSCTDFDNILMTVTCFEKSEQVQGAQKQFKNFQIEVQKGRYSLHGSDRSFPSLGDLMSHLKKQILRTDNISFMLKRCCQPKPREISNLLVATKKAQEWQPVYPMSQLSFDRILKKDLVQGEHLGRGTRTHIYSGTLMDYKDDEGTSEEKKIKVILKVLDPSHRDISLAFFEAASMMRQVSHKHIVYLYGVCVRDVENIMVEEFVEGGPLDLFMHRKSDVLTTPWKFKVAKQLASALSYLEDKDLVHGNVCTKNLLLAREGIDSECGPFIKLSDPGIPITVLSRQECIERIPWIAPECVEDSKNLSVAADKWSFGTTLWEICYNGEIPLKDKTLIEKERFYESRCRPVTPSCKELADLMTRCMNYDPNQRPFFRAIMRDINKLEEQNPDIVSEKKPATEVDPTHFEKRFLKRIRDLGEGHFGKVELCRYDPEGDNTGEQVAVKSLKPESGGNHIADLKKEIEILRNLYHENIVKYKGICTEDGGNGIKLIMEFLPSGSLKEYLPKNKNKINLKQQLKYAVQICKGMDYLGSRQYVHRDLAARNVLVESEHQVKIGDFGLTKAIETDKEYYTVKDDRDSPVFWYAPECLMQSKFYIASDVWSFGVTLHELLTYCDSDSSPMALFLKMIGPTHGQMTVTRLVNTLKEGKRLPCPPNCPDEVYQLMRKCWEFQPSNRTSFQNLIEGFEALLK

[8] = biological target: T1, Tyrosine-protein kinase JAK2; assay: Competitive inhibition of JAK2 (unknown origin) in the presence of ATP
Rattus norvegicus [9] = assay: Antiarthritic activity in CFA-induced Lewis rat assessed as increase in hind paw volume at 1 mg/kg administered for 2 weeks by plethysmometer relative to control; type: functional
Rattus norvegicus [10] = assay: Antiarthritic activity in CFA-induced Lewis rat assessed as increase in hind paw volume at 3 to 10 mg/kg administered for 2 weeks by plethysmometer relative to control; type: functional; details: dose 3-10 mg/kg
[11] = biological target: T3, Tyrosine-protein kinase JAK1; assay: Inhibition of JAK1 (unknown origin) assessed as inhibition constant
[12] = Inhibition of STAT5 phosphorylation in IL-2 stimulated mouse HT-2 cells; type: cell-based; details: HT2
[13] = Inhibition of T cell proliferation in Balb/c mouse spleenocytes by MLR assay; type: toxicity, cell-based; details: Splenocyte
[14] = Inhibition of T cell proliferation in CBA mouse spleenocytes by MLR assay; type: toxicity, cell-based; details: Splenocyte
[15] = Inhibition of IL-2 stimulated human T cell proliferation; type: toxicity, cell-based
B cell = assay: Inhibition of cell proliferation in CD40L/IL-4-induced human B cells; type: toxicity, cell-based
BaF3 [16] = assay: Antiproliferative activity against mouse BaF3 cells harboring JAK2 V617F mutant assessed as inhibition of cell proliferation incubated for 72 hrs by XTT assay; type: toxicity, cell-based; details: BaF3, 72 h
[17] = Antiproliferative activity against mouse BaF3 cells assessed as inhibition of cell proliferation incubated for 72 hrs by XTT assay; type: toxicity, cell-based
HEL = assay: cells; details: Homo sapiens, 72 h
[18] = biological target: T4, Non-receptor tyrosine-protein kinase TYK2 (Homo sapiens, UniProt P29597); assay: Inhibition of TYK2 (unknown origin)
T4 sequence (P29597 whole entry): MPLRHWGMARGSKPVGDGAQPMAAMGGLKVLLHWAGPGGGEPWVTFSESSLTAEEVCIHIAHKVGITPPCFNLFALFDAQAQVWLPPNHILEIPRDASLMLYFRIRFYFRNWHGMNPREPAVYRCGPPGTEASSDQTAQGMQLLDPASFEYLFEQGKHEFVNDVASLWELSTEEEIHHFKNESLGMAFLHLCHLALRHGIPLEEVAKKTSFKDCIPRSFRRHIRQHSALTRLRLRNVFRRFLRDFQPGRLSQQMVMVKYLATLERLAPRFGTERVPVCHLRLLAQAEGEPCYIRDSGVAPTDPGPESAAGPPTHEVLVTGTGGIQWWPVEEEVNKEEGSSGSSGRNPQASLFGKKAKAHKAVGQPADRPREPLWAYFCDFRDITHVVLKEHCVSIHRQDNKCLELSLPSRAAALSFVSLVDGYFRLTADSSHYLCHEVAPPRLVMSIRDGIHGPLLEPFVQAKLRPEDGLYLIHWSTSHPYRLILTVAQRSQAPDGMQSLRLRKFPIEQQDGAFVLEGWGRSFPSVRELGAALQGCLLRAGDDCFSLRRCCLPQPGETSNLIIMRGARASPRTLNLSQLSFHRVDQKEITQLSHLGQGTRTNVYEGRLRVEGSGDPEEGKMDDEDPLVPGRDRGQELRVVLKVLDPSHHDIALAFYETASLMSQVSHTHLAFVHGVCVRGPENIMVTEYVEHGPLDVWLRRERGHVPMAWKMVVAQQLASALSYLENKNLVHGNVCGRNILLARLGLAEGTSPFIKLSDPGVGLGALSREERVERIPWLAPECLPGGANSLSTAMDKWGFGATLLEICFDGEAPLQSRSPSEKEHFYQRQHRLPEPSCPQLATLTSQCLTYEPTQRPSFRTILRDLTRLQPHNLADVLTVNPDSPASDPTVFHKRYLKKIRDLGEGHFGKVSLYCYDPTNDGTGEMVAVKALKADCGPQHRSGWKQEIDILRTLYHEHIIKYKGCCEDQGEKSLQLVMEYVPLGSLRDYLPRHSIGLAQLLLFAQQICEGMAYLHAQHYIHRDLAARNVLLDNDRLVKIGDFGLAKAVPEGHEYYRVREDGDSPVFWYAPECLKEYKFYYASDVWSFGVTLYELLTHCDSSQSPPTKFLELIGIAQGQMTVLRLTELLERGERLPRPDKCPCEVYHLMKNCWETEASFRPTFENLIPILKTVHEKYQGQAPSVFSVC

BaF3 [19] = assay: Inhibition of cell proliferation in mouse BaF3 cells expressing JAK2 V617F mutant; type: toxicity, cell-based
[20] = Inhibition of STAT5 phosphorylation in mouse BaF3 cells expressing JAK2 V617F mutant incubated for 5 hrs by Alphascreen SureFire assay; type: cell-based; details: BaF3, 5 h
[21] = biological target: Tyrosine-protein kinase JAK2 (Mus musculus, UniProt Q62120); assay: Inhibition of IL-3 stimulated wild type JAK2-mediated signalling in mouse BaF3 cells preincubated with compound for 5 hrs followed by IL-3 stimulation and measured after 20 mins by Alphascreen SureFire assay; type: cell-based
BaF3 [22] = assay: Inhibition of cell proliferation in IL-3 stimulated mouse BaF3 cells expressing wild-type JAK2; type: toxicity, cell-based
[23] = biological target: T1, Tyrosine-protein kinase JAK2; assay: Inhibition of JAK2 (unknown origin)
[24] = biological target: T2, Tyrosine-protein kinase JAK3; assay: Inhibition of JAK3 (unknown origin)
[25] = biological target: T3, Tyrosine-protein kinase JAK1; assay: Inhibition of JAK1 (unknown origin)
Homo sapiens [26] = species: Homo sapiens; assay: Selectivity index, ratio of IC50 for inhibition of JAK2 (unknown origin) to IC50 for inhibition of JAK1 (unknown origin)
Homo sapiens [27] = species: Homo sapiens; assay: Selectivity index, ratio of IC50 for inhibition of JAK3 (unknown origin) to IC50 for inhibition of JAK1 (unknown origin)
Homo sapiens [28] = species: Homo sapiens; assay: Selectivity index, ratio of IC50 for inhibition of TYK2 (unknown origin) to IC50 for inhibition of JAK1 (unknown origin)
[29] = biological target: T3, Tyrosine-protein kinase JAK1; assay: Inhibition of human JAK1 kinase domain incubated for 1 hrs in the presence of ATP by spectrophotometric analysis
[30] = biological target: T1, Tyrosine-protein kinase JAK2; assay: Inhibition of human JAK2 kinase domain incubated for 1 hrs in the presence of ATP by spectrophotometric analysis
[31] = biological target: T2, Tyrosine-protein kinase JAK3; assay: Inhibition of human JAK3 kinase domain incubated for 1 hrs in the presence of ATP by spectrophotometric analysis
[32] = biological target: T4, Non-receptor tyrosine-protein kinase TYK2; assay: Inhibition of human TYK2 kinase domain incubated for 1 hrs in the presence of ATP by spectrophotometric analysis
Homo sapiens [33] = species: Homo sapiens; assay: Selectivity index, ratio of IC50 for inhibition of human JAK1 kinase domain to IC50 for inhibition of human JAK2 kinase domain incubated for 1 hrs in the presence of ATP by spectrophotometric analysis
Homo sapiens [34] = species: Homo sapiens; assay: Selectivity index, ratio of IC50 for inhibition of human JAK3 kinase domain to IC50 for inhibition of human JAK2 kinase domain incubated for 1 hrs in the presence of ATP by spectrophotometric analysis
Homo sapiens [35] = species: Homo sapiens; assay: Selectivity index, ratio of IC50 for inhibition of human TYK2 kinase domain to IC50 for inhibition of human JAK2 kinase domain incubated for 1 hrs in the presence of ATP by spectrophotometric analysis
BaF3 [36] = assay: Antiproliferative activity against mouse BaF3 cells harboring JAK2 V617F mutation incubated for 72 hrs by MTT assay; type: functional, cell-based; details: BaF3, 72 h
BaF3 [37] = assay: Antiproliferative activity against mouse BaF3 cells expressing TEL fused JAK2 incubated for 72 hrs by MTT assay; type: functional, cell-based; details: BaF3, 72 h
[38] = biological target: T2, Tyrosine-protein kinase JAK3; assay: Inhibition of recombinant human JAK3 (781 to 1124 residues)
[39] = biological target: T4, Non-receptor tyrosine-protein kinase TYK2; assay: Inhibition of recombinant human TYK2 (870 to 1187 residues)

Sequence of Proto-oncogene tyrosine-protein kinase receptor Ret (P07949 whole entry): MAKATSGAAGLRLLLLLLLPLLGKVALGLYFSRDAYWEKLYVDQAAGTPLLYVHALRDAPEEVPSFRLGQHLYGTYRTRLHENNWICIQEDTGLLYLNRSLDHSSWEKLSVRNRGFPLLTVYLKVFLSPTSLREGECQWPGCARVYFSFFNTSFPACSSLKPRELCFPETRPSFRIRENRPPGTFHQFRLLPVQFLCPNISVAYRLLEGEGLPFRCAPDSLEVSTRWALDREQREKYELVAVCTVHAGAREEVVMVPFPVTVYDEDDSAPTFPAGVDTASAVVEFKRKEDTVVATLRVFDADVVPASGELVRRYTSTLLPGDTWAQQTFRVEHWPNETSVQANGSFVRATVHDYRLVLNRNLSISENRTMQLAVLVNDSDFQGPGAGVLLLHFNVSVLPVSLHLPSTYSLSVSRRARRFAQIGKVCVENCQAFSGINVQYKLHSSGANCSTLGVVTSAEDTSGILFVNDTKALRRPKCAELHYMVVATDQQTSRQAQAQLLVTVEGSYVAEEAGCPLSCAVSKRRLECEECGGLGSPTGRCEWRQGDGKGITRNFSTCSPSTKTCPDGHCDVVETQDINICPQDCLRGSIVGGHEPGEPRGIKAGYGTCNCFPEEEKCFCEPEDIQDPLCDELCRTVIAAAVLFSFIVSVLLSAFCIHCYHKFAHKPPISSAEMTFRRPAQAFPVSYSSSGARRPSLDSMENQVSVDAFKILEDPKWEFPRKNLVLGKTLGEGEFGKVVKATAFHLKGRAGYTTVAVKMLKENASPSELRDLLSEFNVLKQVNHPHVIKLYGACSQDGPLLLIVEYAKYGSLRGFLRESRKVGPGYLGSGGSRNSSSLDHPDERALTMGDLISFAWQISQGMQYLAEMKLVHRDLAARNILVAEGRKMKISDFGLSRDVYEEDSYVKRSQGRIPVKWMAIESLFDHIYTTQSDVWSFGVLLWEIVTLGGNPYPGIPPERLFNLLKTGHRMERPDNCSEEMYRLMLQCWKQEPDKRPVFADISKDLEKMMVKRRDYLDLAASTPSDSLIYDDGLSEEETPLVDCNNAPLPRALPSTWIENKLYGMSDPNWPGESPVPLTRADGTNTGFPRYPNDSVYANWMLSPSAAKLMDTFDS

Cc1cnc(Nc2ccc(N3CCN(C)CC3)cc2)nc1Nc1cccc(S(=O)(=O)NC(C)(C)C)c1
IC50 [1]: 17 nM

CC(C)(C)c1nc2c3ccc(F)cc3c3c(=O)[nH]ccc3c2[nH]1
IC50 (U-266): 250 nM

CN(C)C(=O)/C(C#N)=C/c1ccc(-c2nc3cnc4[nH]ccc4c3n2C2CCCCC2)o1
IC50 [2]: 1000 nM

Cc1cc(Nc2ccc3nc(C)n([C@@H]4CCc5ccc(F)cc54)c3c2)[nH]n1
IC50 [3]: 2 nM
IC50 [4]: 8 nM

O=C(Nc1c[nH]nc1-c1nc2ccc(CN3CCOCC3)cc2[nH]1)NC1CC1 [AT-9283]
inhibition in vivo at 15 mg/kg (HCT-116 [5]): 67%
inhibition in vivo at 20 mg/kg (HCT-116 [6]): 76%

Cc1cc(Nc2nc(N[C@@H](C)c3ncc(F)cn3)ncc2Cl)n[nH]1 [AZD-1480]
IC50 [7]: 1.3 nM
IC50 [8]: 0.4 nM

CCS(=O)(=O)N1CC(CC#N)(n2cc(-c3ncnc4[nH]ccc34)cn2)C1 [BARICITINIB]
Activity (Rattus norvegicus [9]): 50%
Activity (Rattus norvegicus [10]): >95%

CC[C@@](C)(Nc1ccnc(-c2c[nH]c3ncccc23)n1)C(=O)NCC(F)(F)F [DECERNOTINIB]
Ki [11]: 11 nM
IC50 [12]: 50 nM
IC50 [13]: 50 nM
IC50 [14]: 50 nM
IC50 [15]: 50 nM
IC50 (B cell): 50 nM

Cc1cnc(Nc2ccc(OCCN3CCCC3)cc2)nc1Nc1cccc(S(=O)(=O)NC(C)(C)C)c1 [FEDRATINIB]
IC50 (BaF3 [16]): 270 nM
IC50 at 72 h [17]: 420 nM
IC50 (HEL): 305 nM

Cc1cc(Nc2cc(CN3CCOCC3)c3nc(C)c(Cc4ccc(Cl)cc4F)n3n2)n[nH]1 [GANDOTINIB]
IC50 [18]: 44 nM
IC50 [4]: 48 nM
IC50 (BaF3 [19]): 55 nM
IC50 [20]: 20 nM
IC50 [21]: 1180 nM
IC50 (BaF3 [22]): 1310 nM

N#CCC1(n2cc(-c3ncnc4[nH]ccc34)cn2)CN(C2CCN(C(=O)c3ccnc(C(F)(F)F)c3F)CC2)C1 [ITACITINIB]
IC50 [23]: 63 nM
IC50 [24]: 2000 nM
IC50 [25]: 2 nM
IC50 [18]: 795 nM
Ratio IC50 (Homo sapiens [26]): > 20
Ratio IC50 (Homo sapiens [27]): > 100
Ratio IC50 (Homo sapiens [28]): > 100

C[C@H](Nc1cc(-c2cnn(C)c2)cc(Nc2cnccn2)n1)c1ccc(F)cc1 [NS-018]
IC50 [29]: 33 nM
IC50 [30]: 0.72 nM
IC50 [31]: 39 nM
IC50 [32]: 22 nM
Ratio IC50 (Homo sapiens [33]): 46
Ratio IC50 (Homo sapiens [34]): 54
Ratio IC50 (Homo sapiens [35]): 31
IC50 (BaF3 [36]): 11 nM
IC50 (BaF3 [37]): 11 nM

CNS(=O)(=O)C[C@H]1CC[C@H](N(C)c2ncnc3[nH]ccc23)CC1 [OCLACITINIB]
IC50 [38]: 99 nM
IC50 [39]: 84 nM

CC1(C)CN(C(=O)c2ccc(-c3cccc4nc(NC(=O)C5CC5)nn34)cc2)C1 [SOLCITINIB]
IC50 [23]: 108 nM
IC50 [24]: 539 nM
IC50 [25]: 9.8 nM
IC50 [18]: 225 nM
Ratio IC50 (Homo sapiens [26]): 11
Ratio IC50 (Homo sapiens [27]): 55
Ratio IC50 (Homo sapiens [28]): 23

— ChEMBL document CHEMBL5244234, “Janus kinases (JAKs): The efficient therapeutic targets for autoimmune diseases and myeloproliferative disorders” (Eur J Med Chem, 2020)
